# Laboratory results: patent US20120052555A1, “ENRICHMENT OF LISTERIA SPP” (SAMSUNG TECHWIN CO., LTD., priority 2010, published 2012)
# “Also recorded” adds a separate entry of the source.
# How the values were obtained:
# [1] = tested on: heat-injured Listeria monocytogenes; assay: Recovery of sub-lethally heat-injured Listeria cells on Minimal Medium A1 agar; assay type: cell-based; conditions: cells heated 50° C. 10 minutes; for effect in recovering heat-injured Listeria spp.: Minimal Medium supplemented with the agent
# Description: Most Listeria infection cases are associated with pasteurized dairy products. Therefore, the effects of the Minimal Medium A1 on the recovery of sub-lethally heat-injured Listeria spp. were investigated. Overnight-cultured Listeria monocytogenes was serially diluted by 10 folds with PBS. 1 mL of the culture suspension (about 3780 CFU) was cultured at 50° C. for 10 minutes, and 0.1 mL of the culture product was inoculated on the Minimal Medium A1 in agar plate (1.5% agar) in the presence or non-presence of selective agents.
# FIG. 4 is a graph illustrating the effects of medium ingredients on the recovery of heat-injured Listeria spp. […] In FIG. 4, “Pyruvate” indicates a Minimal Medium A1 supplemented with sodium pyruvate, “A1-NONE” indicates a Minimal Medium A1 supplemented with none, and “BHI-NONE” indicates a brain heart infusion medium supplemented with none. “Acriflavine,” “Nalidixic acid,” “Polymyxin B,” “Ceftazidime” and “All” denote Minimal Media A supplemented with […], 40 mg/L of nalidixic acid, 10 mg/L of polymyxin B, 40 mg/L of ceftazidime, and all of these antibiotics, respectively.
# L. grayi strains = assay: Culture of five L. grayi strains in the presence of antibiotics; assay type: cell-based, Listeria grayi; conditions: 35° C. in Minimal Media A1; 10 mg/L acriflavine, 40 mg/L nalidixic acid, 10 mg/L polymyxin B, 40 mg/L ceftazidime
# Description: Separately, five L. grayi strains were cultured at 35° C. in the Minimal Media A1 supplemented separately with 10 mg/L of acriflavine, 40 mg/L of nalidixic acid, 10 mg/L of polymyxin B, 40 mg/L of ceftazidime, and a combination thereof. As a result, the effects of each antibiotic on the growth of L. grayi were trivial. […] The two strains reached maximum cell densities within about 24 hours.
# Listeria monocytogenes = assay: Effect of LiCl concentration in Minimal Medium A1 on cell growth (PCR Cp); assay type: cell-based; conditions: LiCl 1, 3, 5, 7, 9 or 10 g/L in Minimal Medium A1
# Description: 300 μL of overnight cultures (about of 3×10^9 CFU/ml) of Listeria monocytogenes in a brain hear infusion (BHI) medium was added into 30 mL of each of the pre-warmed media in 250 ml glass flask. Each mixture was cultured without shaking at 35° C. for 24 hours. Aliquots (20 μL) of the culture products were collected from each container after culture for 1, 2, 3, 4, 5, 6, 7, 8, 9 and 24 hours, respectively. Each culture product was treated with a TZ lysis buffer with 1 mg/ml proteinase K, and incubated at 55° C. for 15 min, 95° C. for 10 min, and cooled at 4° C. for 2 min. Cell lysates were added into the PCR mixture for real-time PCR. The PCR mixture contained forward and reverse primers of SEQ ID NOs. 5 and 6, the probe of SEQ ID No. 7, and the RNase H. The primers and probe were specific to the InlA gene of L. monocytogenes. The 5′ and 3′ ends of the probe were labeled with FAM and Iowa BFQ ([…]), respectively.
# The PCR conditions were as follows: UNG activation at 37° C. for 600 seconds; Denaturation at 95° C. for 600 seconds; Denaturation at 95° C. for 15 seconds; and annealing and elongation at 60° C. for 20 seconds (50 cycles). […]
# background microflora = assay: Effects of antibiotics on background microflora of ground beef (aerobic plate counts); assay type: cell-based; conditions: 10 g/L ground beef, 35° C., Minimal Media A; among the four antibiotics
# Description: In addition, effects of antibiotics on background microflora were investigated. First, 10 g/L of ground beef was cultured at 35° C. in the Minimal Media A supplemented separately with 10 mg/L of acriflavine, 40 mg/L of nalidixic acid, 10 mg/L of polymyxin B, 40 mg/L of ceftazidime, and a combination thereof. The cell concentrations before and after culture were determined based on aerobic plate counts. The aerobic plate counts were determined by inoculating 100 μL of the culture products into Difco® Plate Count agar medium, culturing the mixture at 35° C. for 24 hours, and counting cell colonies
# FIG. 3 is a graph illustrating the effects of antibiotics on background microflora. Referring to FIG. 3, the growth of the background microfluora was inhibited about 100 times more strongly when the four antibiotics were added together, than when they were used individually.
molecule,measurement,setting,value
CC(=O)C(=O)[O-].[Na+] [sodium pyruvate],recovery rate of heat-injured Listeria spp.,[1]; 10 g/L of sodium pyruvate compared to 10 mM of MgCl2,recovery rate was improved
same,effect in recovering heat-injured Listeria spp.,[1],positive effects
polymyxin B,effect on the growth of L. grayi,L. grayi strains,trivial
same,effect in recovering heat-injured Listeria spp.,[1],positive effects
acriflavine,effect on the growth of L. grayi,L. grayi strains,trivial
same,effect in recovering heat-injured Listeria spp.,[1],positive effects
"[Cl-].[Li+] [LiCl, lithium chloride]",effect of LiCl concentration on Cp values / cell growth,Listeria monocytogenes,high LiCl concentration helped recovery of Listeria; also recorded: the smaller the Cp values and the more the cell growth was enhanced
CCn1cc(C(=O)O)c(=O)c2ccc(C)nc21 [nalidixic acid],effect on the growth of L. grayi,L. grayi strains,trivial
same,inhibitory effect on cell growth of background microflora,background microflora,strongest inhibitory effect on cell growth
CC(C)(O/N=C(\C(=O)N[C@@H]1C(=O)N2C(C(=O)[O-])=C(C[n+]3ccccc3)CS[C@H]12)c1csc(N)n1)C(=O)O [ceftazidime],effect on the growth of L. grayi,L. grayi strains,trivial
same,effect in recovering heat-injured Listeria spp.,[1],positive effects
